Measured values taken from patent US11643400B2, “MCL-1 inhibitors” (Gilead Sciences, Inc., priority 2018, dated 2023).
pEC50, pIC50: −log10 of the molar value.

Molecular target: Recombinant human MCL-1 protein (Homo sapiens (Human), UniProt Q07820)
Assay: MCL-1/Bim Binding AlphaLISA Assay
Settings: 6×His-Mcl-1 (171-327) and biotinylated-Bim peptide (51-76)
Method: MCL-1/Bim Binding AlphaLISA Assay.
Inhibition of the MCL-1 and Bim interaction was measured in the following AlphaLISA assay.
Recombinant human MCL-1 protein (C-terminal 6×His Tagged Mcl-1 containing residues 171-327) was generated at Gilead Sciences, Inc. (Foster City, Calif.). A biotinylated peptide derived from human Bim (residues 51-76) was purchased from CPC Scientific (Sunnyvale, Calif.). (CPC 834113). AlphaLISA anti-6His-acceptor beads (AL128R), AlphaScreen Streptavidin donor beads (6760002B), and Proxiplate-384 Plus (6008289) were purchased from PerkinElmer.
The AlphaLISA assay was performed in a 384-well Proxiplate in a total volume of 40 μL. The reaction mixture contained 0.0625 nM 6×His-Mcl-1 (171-327), 0.0625 nM biotinylated-Bim peptide, 10 μg/mL AlphaLISA anti-6×His-AlphaLISA acceptor beads, 40 μg/mL AlphaScreen streptavidin donor beads, and serially diluted test compounds in the binding buffer (20 mM Hepes, pH 7.5 (Teknova H1035); 150 mM NaCl (Promega V4221); 0.002% Brij 35 (Thermo Scientific 20150); 1 mM Dithiothreitol (DTT) Solution (Affymetrix 70726); 0.01% BSA (BioLabs B9000S)). 1,000× test compounds were pre-spotted onto 384-well Proxiplate (Labcyte Echo) by Echo 555 Liquid Handler (Labcyte Inc., San Jose, Calif.) followed by incubation of 5 μl Mcl-1 (171-327) for 1 hour. Then 5 μL Bim (51-76) was added and incubated for 2 hours. Five μL AlphaLISA anti-6His-AlphaLISA acceptor beads were then added for 1 hour followed by addition of 5 μL AlphaScreen streptavidin donor beads for 1 hour. The reaction plates were then read on an Envision multimode reader (PerkinElmer) using AlphaScreen settings. […] Percent inhibition was calculated as shown below: % Inhibition=100%*(Well−Neg)/(Pos−Neg) Neg: negative control, DMSO Pos: positive control, no Mcl-1 protein, no biotinylated-Bim peptide

Sequence of Recombinant human MCL-1 protein (Q07820 171-327): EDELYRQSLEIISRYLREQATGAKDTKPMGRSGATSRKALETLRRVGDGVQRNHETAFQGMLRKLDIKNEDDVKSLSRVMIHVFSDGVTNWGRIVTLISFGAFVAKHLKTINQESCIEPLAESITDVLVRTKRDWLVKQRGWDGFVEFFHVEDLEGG

pIC50	Compound
10.22	CO[C@H]1/C=C/C[C@H](C)C[S@@](=O)(NC(=O)NC2CC2)=NC(=O)c2ccc3c(c2)N(C[C@@H]2CC[C@H]21)C[C@@]1(CCCc2cc(Cl)ccc21)CO3 [Example 170]
10.16	CCc1nn(C)cc1C(=O)N[S@@]1(=O)=NC(=O)c2ccc3c(c2)N(C[C@@H]2CC[C@H]2[C@@H](OC)/C=C/C[C@H](C)[C@H]1C)C[C@@]1(CCCc2cc(Cl)ccc21)CO3 [Example 188]
9.70	CO[C@H]1/C=C/CCC[S@@](=O)(NC(=O)CCc2cocn2)=NC(=O)c2ccc3c(c2)N(C[C@@H]2CC[C@H]21)C[C@@]1(CCCc2cc(Cl)ccc21)CO3 [Example 57]
9.15	COc1nn(C)cc1C(=O)N[S@@]1(=O)=NC(=O)c2ccc3c(c2)N(C[C@@H]2CC[C@H]2[C@@H](OC)/C=C/[C@H](OC(=O)c2cn(C)nc2OC)CC1)C[C@@]1(CCCc2cc(Cl)ccc21)CO3 [Example 391]

Test system: SKBR3 Cells
Assay: SKBR3 Cell Viability Assay
Type: cell-based
Settings: 72 hours, CellTiter Glo luminescence, read-out: MCL-1 CV SKBR3 EC50
Method: SKBR3 Cell Viability Assay Materials
SKBR3 Cells (ATCC HTB-30) were obtained from ATCC (Manassas, Va.) and cultured in McCoy 5A's medium (ATCC 30-2007)+10% fetal bovine serum (SH30071.03, HyClone, Pittsburgh, Pa.) plus 1× Penicillin-Streptomycin L-glutamine (Corning 30-009-C1, Corning, N.Y.)).
The cell viability assay was conducted in a 384-well tissue culture plate (Grenier 781086, Monroe, N.C.) in a total volume of 70 μL. Test compounds were prepared in 1,000×, serially diluted, and pre-spotted into 384-well tissue culture plate by Echo 555 Liquid Handler (Labcyte Inc., San Jose, Calif.). Seventy pi of 6,000 SKBR3 cells were dispensed into each well of the plate and incubated at 37° C. with 5% CO2 for 72 hours. At the end of incubation, 2× CellTiter Glo (CTG) reagents (1 part buffer with 2 parts substrate) (Promega, Madison, Wis.) were prepared, and the plate and the reagent were equilibrated to room temperature for 30 minutes. CTG reagent was added to each plate by Biomek FX at 20 μL/well with 5 times pipetting and mixing to induce cell lysis. Luminescence was read by Envision multimode reader (PerkinElmer). […] Percent inhibition was calculated as followed: % Inhibition=100%*(Well−Neg)/(Pos−Neg) Neg, negative control, DMSO Pos, positive control, 10 μM Puromycin

Compound	pEC50
CO[C@H]1/C=C/CCC[S@@](=O)(NC(=O)COc2ccnn2C)=NC(=O)c2ccc3c(c2)N(C[C@@H]2CC[C@H]21)C[C@@]1(CCCc2cc(Cl)ccc21)CO3 [Example 100]	5.65
CO[C@H]1/C=C/CCC[S@@](=O)(NC(=O)COc2ccccc2)=NC(=O)c2ccc3c(c2)N(C[C@@H]2CC[C@H]21)C[C@@]1(CCCc2cc(Cl)ccc21)CO3 [Example 96]	6.22
CO[C@H]1/C=C/C[C@H](C)C[S@@](=O)(NC(=O)N2CC(C(C)(C)O)C2)=NC(=O)c2ccc3c(c2)N(C[C@@H]2CC[C@H]21)C[C@@]1(CCCc2cc(Cl)ccc21)CO3 [Example 237]	6.92
CO[C@H]1/C=C/CCC[S@@](=O)(NC(=O)CCC(F)(F)F)=NC(=O)c2ccc3c(c2)N(C[C@@H]2CC[C@H]21)C[C@@]1(CCCc2cc(Cl)ccc21)CO3 [Example 94]	6.04
CO[C@H]1/C=C/CCC[S@@](=O)(NC(=O)CCc2c(C)cnn2C)=NC(=O)c2ccc3c(c2)N(C[C@@H]2CC[C@H]21)C[C@@]1(CCCc2cc(Cl)ccc21)CO3 [Example 103]	5.00
CCC1CN(C(=O)N[S@@]2(=O)=NC(=O)c3ccc4c(c3)N(C[C@@H]3CC[C@H]3[C@@H](OC)/C=C/C[C@H](C)C2)C[C@@]2(CCCc3cc(Cl)ccc32)CO4)C1 [Example 242]	7.08
COc1nn(C)cc1C(=O)N[S@@]1(=O)=NC(=O)c2ccc3c(c2)N(C[C@@H]2CC[C@H]2[C@@H](OC(=O)CC(C)C)/C=C/C[C@H](C)C1)C[C@@]1(CCCc2cc(Cl)ccc21)CO3 [Example 381]	6.27
COC1CCN(C(=O)N[S@@]2(=O)=NC(=O)c3ccc4c(c3)N(C[C@@H]3CC[C@H]3[C@@H](OC)/C=C/C[C@H](C)C2)C[C@@]2(CCCc3cc(Cl)ccc32)CO4)CC1 [Example 320]	7.44
CO[C@H]1/C=C/C[C@H](C)C[S@@](=O)(NC(=O)N2CC3(CCCO3)C2)=NC(=O)c2ccc3c(c2)N(C[C@@H]2CC[C@H]21)C[C@@]1(CCCc2cc(Cl)ccc21)CO3 [Example 231]	7.40
CO[C@H]1/C=C/CCC[S@@](=O)(NC(=O)NC2(C(F)(F)F)CC2)=NC(=O)c2ccc3c(c2)N(C[C@@H]2CC[C@H]21)C[C@@]1(CCCc2cc(Cl)ccc21)CO3 [Example 32]	5.83
CCOC1CN(C(=O)N[S@@]2(=O)=NC(=O)c3ccc4c(c3)N(C[C@@H]3CC[C@H]3[C@@H](OC)/C=C/C[C@H](C)C2)C[C@@]2(CCCc3cc(Cl)ccc32)CO4)C1 [Example 235]	7.40
CO[C@H]1/C=C/CCC[S@@](=O)(NC(=O)CCc2csc(C)n2)=NC(=O)c2ccc3c(c2)N(C[C@@H]2CC[C@H]21)C[C@@]1(CCCc2cc(Cl)ccc21)CO3 [Example 99]	5.68
CCN(CC)C(=O)OC1CN(C(=O)N[S@@]2(=O)=NC(=O)c3ccc4c(c3)N(C[C@@H]3CC[C@H]3[C@@H](OC)/C=C/C[C@H](C)C2)C[C@@]2(CCCc3cc(Cl)ccc32)CO4)C1 [Example 226]	7.15
CO[C@H]1/C=C/CCC[S@@](=O)(NC(=O)CCCC(F)(F)F)=NC(=O)c2ccc3c(c2)N(C[C@@H]2CC[C@H]21)C[C@@]1(CCCc2cc(Cl)ccc21)CO3 [Example 95]	5.96
CO[C@H]1/C=C/CCC[S@@](=O)(NC(=O)c2cc3ccccc3n2C)=NC(=O)c2ccc3c(c2)N(C[C@@H]2CC[C@H]21)C[C@@]1(CCCc2cc(Cl)ccc21)CO3 [Example 98]	5.66
CO[C@H]1/C=C/CCC[S@@](=O)(NC(=O)CCc2ccccc2)=NC(=O)c2ccc3c(c2)N(C[C@@H]2CC[C@H]21)C[C@@]1(CCCc2cc(Cl)ccc21)CO3 [Example 97]	6.10
CO[C@H]1/C=C/C[C@H](C)C[S@@](=O)(NC(=O)C2CC(OC(F)F)C2)=NC(=O)c2ccc3c(c2)N(C[C@@H]2CC[C@H]21)C[C@@]1(CCCc2cc(Cl)ccc21)CO3 (stereo partly shown) [Example 431]	6.63
CO[C@H]1/C=C/CCC[S@@](=O)(NC(=O)CCc2nnc(C)s2)=NC(=O)c2ccc3c(c2)N(C[C@@H]2CC[C@H]21)C[C@@]1(CCCc2cc(Cl)ccc21)CO3 [Example 102]	6.05
CO[C@H]1/C=C/C[C@H](C)C[S@@](=O)(NC(=O)N2CC3(CCO3)C2)=NC(=O)c2ccc3c(c2)N(C[C@@H]2CC[C@H]21)C[C@@]1(CCCc2cc(Cl)ccc21)CO3 [Example 230]	7.33
CO[C@H]1/C=C/C[C@H](C)C[S@@](=O)(NC(=O)N2CC(C#N)C2)=NC(=O)c2ccc3c(c2)N(C[C@@H]2CC[C@H]21)C[C@@]1(CCCc2cc(Cl)ccc21)CO3 [Example 233]	7.33
COc1nn(C2CC2)cc1C(=O)N[S@@]1(=O)=NC(=O)c2ccc3c(c2)N(C[C@@H]2CC[C@H]2[C@@H](OC)/C=C/C[C@H](C)C1)C[C@@]1(CCCc2cc(Cl)ccc21)CO3 [Example 262]	7.07
CO[C@H]1/C=C/CCC[S@@](=O)(NC(=O)CCc2ncsc2C)=NC(=O)c2ccc3c(c2)N(C[C@@H]2CC[C@H]21)C[C@@]1(CCCc2cc(Cl)ccc21)CO3 [Example 101]	5.59
COc1nn(C)cc1C(=O)N[S@@]1(=O)=NC(=O)c2ccc3c(c2)N(C[C@@H]2CC[C@H]2[C@@H](OC(=O)OC(C)C)/C=C/C[C@H](C)C1)C[C@@]1(CCCc2cc(Cl)ccc21)CO3 [Example 384]	6.81
CO[C@H]1/C=C/CCC[S@@](=O)(NC(=O)COC2CCOCC2)=NC(=O)c2ccc3c(c2)N(C[C@@H]2CC[C@H]21)C[C@@]1(CCCc2cc(Cl)ccc21)CO3 [Example 105]	6.45
CO[C@H]1/C=C/C[C@H](C)C[S@@](=O)(NC(=O)[C@H]2Cc3ccccc3CO2)=NC(=O)c2ccc3c(c2)N(C[C@@H]2CC[C@H]21)C[C@@]1(CCCc2cc(Cl)ccc21)CO3 (single isomer, unassigned) [Example 143]	6.66

Same assay, conditions: Homo sapiens, SK-BR-3, 72 h, CellTiter Glo luminescence, read-out: MCL-1 CV SKBR3 EC50

pEC50	Compound
6.68	CO[C@H]1/C=C/C[C@H](C)C[S@@](=O)(NC(=O)NC2CC2)=NC(=O)c2ccc3c(c2)N(C[C@@H]2CC[C@H]21)C[C@@]1(CCCc2cc(Cl)ccc21)CO3 [Example 170]
7.11	CCc1nn(C)cc1C(=O)N[S@@]1(=O)=NC(=O)c2ccc3c(c2)N(C[C@@H]2CC[C@H]2[C@@H](OC)/C=C/C[C@H](C)[C@H]1C)C[C@@]1(CCCc2cc(Cl)ccc21)CO3 [Example 188]
6.22	CO[C@H]1/C=C/CCC[S@@](=O)(NC(=O)CCc2cocn2)=NC(=O)c2ccc3c(c2)N(C[C@@H]2CC[C@H]21)C[C@@]1(CCCc2cc(Cl)ccc21)CO3 [Example 57]
6.59	CO[C@H]1/C=C/CCC[S@@](=O)(NC(=O)CCc2ccnn2C)=NC(=O)c2ccc3c(c2)N(C[C@@H]2CC[C@H]21)C[C@@]1(CCCc2cc(Cl)ccc21)CO3 [Example 22]
5.34	COc1nn(C)cc1C(=O)N[S@@]1(=O)=NC(=O)c2ccc3c(c2)N(C[C@@H]2CC[C@H]2[C@@H](OC)/C=C/[C@H](OC(=O)c2cn(C)nc2OC)CC1)C[C@@]1(CCCc2cc(Cl)ccc21)CO3 [Example 391]
